From patent US20260373138A1, “COMPOUNDS WITH ANTIFUNGAL PROPERTIES” (priority 2023, published 2026) come the findings set out here.

The experiment deals with A. fumigatus CEA10 reference strain. In words: Fluconazole potentiator screen: MIC by CLSI microbroth dilution with and without fluconazole. In kind it is cell-based, Aspergillus fumigatus. To be noted: for MIC: Aspergillus fumigatus, read-out: MIC (ug/mL) (−) Fluc; for MIC / MIC (ug/mL) (+) Fluc: 18 h; for potency / potentiation of fluconazole (in words): structure-activity statements, fluconazole potentiator screen; for MIC (ug/mL) (+) Fluc: with 32 μg/ml fluconazole, normoxia, GMM, 37 °C.

For the compound `O=C(c1ccc(CC2CCN(S(=O)(=O)c3cccc(F)c3)CC2)cc1)N1CCOCC1` [MBX-8188], the MIC was more than 22 µg/mL, the “potency / potentiation of fluconazole (in words)” value (“potency / potentiation” below) was “not tolerated” and the “MIC (ug/mL) (+) Fluc” value is more than 22 µg/mL.
In the case of `O=C(c1ccsc1)N1CCC(Cc2ccc(COc3ccncc3)cn2)CC1` [MBX-8619], the MIC worked out at 4.92 µg/mL and the “MIC (ug/mL) (+) Fluc” value is 1.23 µg/mL.
In the same order, the values of `O=C(c1ccc(C(F)(F)F)nc1)N1CCC(Cc2ccc(CN3CCOCC3)cc2)C1` (stereo not drawn) [MBX-8392] are more than 43 µg/mL and more than 43 µg/mL.
Consider `O=S(=O)(c1ccc(Cl)cc1)N1CCC2(CC1)CC(CCOc1ccncc1)CCO2` (stereo not drawn) [MBX-7877], for which the MIC amounted to 3.19 µg/mL and the “MIC (ug/mL) (+) Fluc” value worked out at 0.80 µg/mL.
In the same order, the values of `O=S(=O)(c1ccsc1)N1CC2(CN(CCOc3ccncc3)C2)C1` [MBX-8241] are more than 18 µg/mL and more than 18 µg/mL.
Take `O=C(c1ccc2scnc2c1)N1CCC(Cc2ccc(COc3ccncc3)cc2)CC1` [MBX-8097]: the MIC is more than 22 µg/mL and the “MIC (ug/mL) (+) Fluc” value was more than 22 µg/mL.
Consider `c1cc(OCc2ccc(CC3CCNCC3)cc2)ccn1` [MBX-8147], for which the MIC is more than 14 µg/mL and the “MIC (ug/mL) (+) Fluc” value was more than 14 µg/mL.
As to `O=C(c1ccsc1)N1CCC(c2ccc(COc3ccncc3)cc2)CC1` [MBX-8066], the MIC was found to be 1.2 µg/mL and the “MIC (ug/mL) (+) Fluc” value was 0.90 µg/mL.
For `O=S(=O)(c1cccc(F)c1)N1CCN(Cc2ccc(CN3CCOCC3)cc2)CC1` [MBX-8189] the same measures were more than 21 µg/mL and more than 21 µg/mL.
In the same order, the values of `O=C(c1ccsc1)N1CCN(Cc2ccc(COc3ccncc3)cc2)CC1` [MBX-8030] are 1.9 µg/mL and 0.50 µg/mL.
In the same order, the values of `O=C(c1cccc(F)c1O)N1CCC(Cc2ccc(COc3ccncc3)cc2)CC1` [MBX-7803] are more than 16 µg/mL and more than 16 µg/mL.
As to `O=C(c1cccc(F)c1)N1CCC(Cc2ccc(COc3ccncc3)cc2)CC1` [MBX-7770], the MIC amounted to 8.09 µg/mL and the “MIC (ug/mL) (+) Fluc” value worked out at 8.09 µg/mL.
With `O=S(=O)(c1cccc(F)c1)N1CCC(Cc2ccc(CN3CC4(COC4)C3)cc2)CC1` [MBX-8244], the MIC is more than 22 µg/mL and the “MIC (ug/mL) (+) Fluc” value is more than 22 µg/mL.
For the compound `O=S(=O)(c1ccc(F)cc1)N1CCC(Cc2ccc(CN3CCN(CC(F)(F)F)CC3)cc2)CC1` [MBX-8438], the MIC is more than 25 µg/mL and the “MIC (ug/mL) (+) Fluc” value is more than 25 µg/mL.
For `O=S(=O)(c1cccs1)N1CCC2(CCc3cc(Oc4ccncc4)ccc3O2)CC1` [MBX-8435] the same measures were more than 22 µg/mL and more than 22 µg/mL.
In the same order, the values of `O=C(c1ccsc1)N1CCC(Cc2ccc(CNc3ccncc3)cc2)CC1` [MBX-8085] are more than 19 µg/mL and more than 19 µg/mL.
On to `O=C(c1ccsc1)N1CC2(CC(CCOc3ccncc3)C2)C1` [MBX-8285], for which the MIC amounted to 4.11 µg/mL and the “MIC (ug/mL) (+) Fluc” value turned out to be 2.05 µg/mL.
For `O=C1c2ccsc2CCN1Cc1ccc(CCOc2ccncc2)cc1` [MBX-8354] the same measures were 9 µg/mL and 14.00 µg/mL.
For `O=C(c1ccc(Cl)s1)N1CCC(Cc2ccc(COc3ccncc3)cc2)CC1` [MBX-8095], the MIC was determined as 6.7 µg/mL and the “MIC (ug/mL) (+) Fluc” value turned out to be 3.80 µg/mL. Also, the “loss in potentiating the fluconazole” value (analogs of MBX-7591) is on record as “more than 4 fold”.
In the case of `O=S(=O)(c1ccc(F)cc1)C1CCN(Cc2ccc(CN3CCOCC3)cc2)CC1` [MBX-8325], the MIC was more than 20 µg/mL and the “MIC (ug/mL) (+) Fluc” value was more than 20 µg/mL.
In the same order, the values of `CC(c1cccs1)N1CCC2(CC1)CC(CCOc1ccncc1)CCO2` (stereo not drawn) [MBX-7954] are more than 77 µg/mL and more than 77 µg/mL.
In the same order, the values of `O=S(=O)(c1cccs1)N1CCC2(CC1)CC(CCO)CCO2` (stereo not drawn) [MBX-8248] are more than 17 µg/mL and more than 17 µg/mL.
As to `O=C(c1ccsc1)N1CCC(Cc2ccc(COc3cccnc3)cc2)CC1` [MBX-8065], the MIC is more than 19 µg/mL, the “potency / potentiation” value is reported as “complete loss of activity” and the “MIC (ug/mL) (+) Fluc” value was more than 19 µg/mL.
As to `COc1ccccc1S(=O)(=O)N1CCC2(CC1)CC(CCOc1ccncc1)CCO2` (stereo not drawn) [MBX-7961], the MIC was more than 89 µg/mL and the “MIC (ug/mL) (+) Fluc” value was more than 89 µg/mL.
Turning to `O=S(=O)(c1cncs1)N1CCC2(CC1)CC(CCOc1ccncc1)CCO2` (stereo not drawn) [MBX-7959], the MIC was 21.2 µg/mL and the “MIC (ug/mL) (+) Fluc” value came to 4.20 µg/mL.
In the same order, the values of `O=S(=O)(c1ccc(F)cc1)N1CCC(Cc2ccc(CN3CCn4cncc4C3)cc2)CC1` [MBX-8684] are 7.38 µg/mL and 1.30 µg/mL.
`O=S(=O)(NC1CCN(Cc2ccc(CN3CCOCC3)cc2)CC1)c1ccc(F)cc1` [MBX-8284]: the MIC was more than 22 µg/mL and the “MIC (ug/mL) (+) Fluc” value is more than 22 µg/mL.
In the same order, the values of `CN1CCN(c2ccc(CC3CCN(S(=O)(=O)c4ccc(F)cc4)CC3)cc2)CC1` [MBX-8701] are 0.67 µg/mL and 0.19 µg/mL.
Regarding `O=S(=O)(c1ccc(Cl)cc1)N1CCC(Cc2ccc(CN3CCOCC3)cc2)CC1` [MBX-8146], the MIC came out at 0.28 µg/mL, the “potency / potentiation” value is listed as “maintain activity in the morpholine series” and the “MIC (ug/mL) (+) Fluc” value is 0.14 µg/mL.
Take `CC(C1CCN(Cc2ccc(CN3CCOCC3)cc2)CC1)S(=O)(=O)c1ccc(F)cc1` (stereo not drawn) [MBX-8359]: the MIC is more than 23 µg/mL and the “MIC (ug/mL) (+) Fluc” value is more than 23 µg/mL.
Regarding `CCc1ccc(C(=O)N2CCC(Cc3ccc(COc4ccncc4)cc3)CC2)cc1` [MBX-8087], the MIC stood at 13 µg/mL and the “MIC (ug/mL) (+) Fluc” value is more than 18 µg/mL.
In the case of `O=S(=O)(c1cccc(Cl)c1)N1CCC(Cc2ccc(CN3CCOCC3)cc2)CC1` [MBX-8187], the MIC worked out at 4.45 µg/mL and the “MIC (ug/mL) (+) Fluc” value was 2.50 µg/mL.
As for `O=C(c1cccnc1)N1CCC(Cc2ccc(COc3ccncc3)cc2)CC1` [MBX-7730], the MIC turned out to be 15 µg/mL, the “potency / potentiation” value is recorded as “did not result in appreciable increase in potency” and the “MIC (ug/mL) (+) Fluc” value amounted to 7.70 µg/mL.
With `Cn1ccc(C(=O)N2CCC(Cc3ccc(COc4ccncc4)cc3)CC2)c1` [MBX-7773], the MIC worked out at 7.79 µg/mL, the “potency / potentiation” value was “antagonistic potentiation effect with the fluconazole” and the “MIC (ug/mL) (+) Fluc” value was determined as 15.60 µg/mL.
On to `O=C(c1ccsc1)N1CC(Cc2ccc(COc3ccncc3)cc2)C1` [MBX-8305], for which the MIC came out at 9.1 µg/mL and the “MIC (ug/mL) (+) Fluc” value stood at 4.50 µg/mL.
Take `O=S(=O)(c1cccs1)N1CCC2(CC1)C[C@H](CCOc1ccncc1)CCO2` [MBX-8250]: the MIC was 2.64 µg/mL and the “MIC (ug/mL) (+) Fluc” value is 0.52 µg/mL.
For `O=C(c1cccc(Cl)c1)N1CCC(Cc2ccc(COc3ccncc3)cc2)CC1` [MBX-8092] the same measures were 21 µg/mL and more than 21 µg/mL.
In the same order, the values of `O=C(c1ccsc1)N1CCC(Cc2cccc(COc3ccncc3)c2)CC1` [MBX-8029] are 27 µg/mL and 19.00 µg/mL.
For `O=C(c1csc(Cl)c1)N1CCN(Cc2ccc(CN3CCOCC3)cc2)CC1` [MBX-8249] the same measures were more than 21 µg/mL and 21.00 µg/mL.
With `O=S(=O)(C1CC1)N1CCC2(CC1)CC(CCOc1ccncc1)CCO2` (stereo not drawn) [MBX-7911], the MIC was determined as 76.1 µg/mL, the “potency / potentiation” value is listed as “complete loss of activity” and the “MIC (ug/mL) (+) Fluc” value is 38.10 µg/mL.
For the compound `O=S(=O)(c1ccc(F)cc1)N1CCC(Cc2ccc(CN3CCOCC3)c(F)c2)CC1` [MBX-8356], the MIC came out at 0.6 µg/mL and the “MIC (ug/mL) (+) Fluc” value came to 0.09 µg/mL.
As for `O=C(c1ccc(Cl)cc1)N1CCC(Cc2ccc(COc3ccncc3)cc2)CC1` [MBX-7705], the MIC came out at 1.49 µg/mL, the “potency / potentiation” value is given as “low potentiation effect” and the “MIC (ug/mL) (+) Fluc” value was 1.05 µg/mL.
As for `O=C(N1CCC(Cc2ccc(COc3ccncc3)cc2)CC1)C12CC(C1)C2` [MBX-8090], the MIC was found to be 18.8 µg/mL and the “MIC (ug/mL) (+) Fluc” value turned out to be 13.30 µg/mL.
For the compound `O=S(=O)(c1ccc(F)cc1)N1CCC(Oc2ccc(CN3CCOCC3)cc2)CC1` [MBX-8282], the MIC came to 5.43 µg/mL and the “MIC (ug/mL) (+) Fluc” value came out at 1.36 µg/mL.
Consider `O=C(c1ccsc1)N1CCC(Cc2ccc(CCc3ccncc3)cc2)CC1` [MBX-8026], for which the MIC worked out at 2.4 µg/mL, the “potency / potentiation” value is “maintained potency” and the “MIC (ug/mL) (+) Fluc” value was determined as 0.80 µg/mL.
On to `O=S(=O)(C1COC1)N1CCC2(CC1)CC(CCOc1ccncc1)CCO2` (stereo not drawn) [MBX-7956], for which the MIC was more than 79 µg/mL, the “potency / potentiation” value is “complete loss of activity” and the “MIC (ug/mL) (+) Fluc” value is more than 79 µg/mL.
In the case of `O=S(=O)(c1ccc(F)cc1)N1CC2(CC(Cc3ccc(CN4CCOCC4)cc3)C2)C1` [MBX-8345], the MIC is more than 22 µg/mL and the “MIC (ug/mL) (+) Fluc” value came out at 11.00 µg/mL.
For `O=S(=O)(c1ccccc1F)N1CCC(Cc2ccc(CN3CCOCC3)cc2)CC1` [MBX-8252] the same measures were 5.4 µg/mL and 1.07 µg/mL.
In the same order, the values of `O=S(=O)(c1ccc(F)cc1)N1CCC(Cc2ccc(CN3CCN4CCC[C@H]4C3)cc2)CC1` [MBX-8668] are 11.8 µg/mL and 1.47 µg/mL.
For the compound `O=S(=O)(c1ccsc1)N1CC2(CC(CCOc3ccncc3)C2)C1` [MBX-8306], the MIC came out at 9.1 µg/mL and the “MIC (ug/mL) (+) Fluc” value came out at 4.50 µg/mL.
As to `O=S(=O)(c1ccc(F)cc1)N1CCC(Cc2ccc(Cc3ccncc3)cc2)CC1` [MBX-8428], the MIC stood at 10.6 µg/mL and the “MIC (ug/mL) (+) Fluc” value amounted to 6.37 µg/mL.
For `O=S(=O)(c1ccc(F)cc1)N1CCC(Cc2ccc(CN3CCOCC3)cc2)C1` (stereo not drawn) [MBX-8390] the same measures were 2 µg/mL and 0.40 µg/mL.
